Reference: ChEMBL document CHEMBL1145313, “Identification of potent and highly selective chiral tri-amine and tetra-amine mu opioid receptors ligands: an example of lead optimization using mixture-based libraries” (Bioorg Med Chem Lett, 2006)

Target: Mu-type opioid receptor (Rattus norvegicus, UniProt P33535)
Assay: Displacement of [3H]DAMGO from mu opioid receptor in rat brain homogenate
Assay type: tissue-based

Chain of Mu-type opioid receptor (P33535 whole entry): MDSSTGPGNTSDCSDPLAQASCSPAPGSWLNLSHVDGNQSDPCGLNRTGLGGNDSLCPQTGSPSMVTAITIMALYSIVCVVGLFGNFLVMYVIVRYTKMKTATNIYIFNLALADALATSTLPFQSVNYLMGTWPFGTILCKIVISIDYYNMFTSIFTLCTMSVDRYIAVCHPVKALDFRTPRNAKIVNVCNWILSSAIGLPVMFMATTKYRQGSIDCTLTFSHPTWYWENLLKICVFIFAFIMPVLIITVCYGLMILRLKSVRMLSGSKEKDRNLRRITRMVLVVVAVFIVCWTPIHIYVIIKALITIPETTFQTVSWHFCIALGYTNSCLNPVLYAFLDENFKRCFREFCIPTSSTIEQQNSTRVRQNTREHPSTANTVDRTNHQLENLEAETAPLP

Structure (SMILES)	IC50 [nM]
CCN[C@H](CN[C@H](CN[C@@H](Cc1ccccc1)CN1CCC[C@H]1CN[C@H](CN)Cc1ccc(O)cc1)Cc1ccc(O)cc1)Cc1ccc(O)cc1	24
CCN[C@H](CN[C@H](CN[C@@H](Cc1ccc(O)cc1)CN1CCC[C@H]1CN[C@@H](CN[C@H](CN)CCSC)[C@@H](C)O)Cc1ccc(O)cc1)Cc1ccc(O)cc1	112
CCN[C@H](CN[C@H](CN[C@@H](Cc1ccccc1)CN1CCC[C@H]1CN[C@H](CN[C@H](CN)Cc1ccccc1)Cc1ccc(O)cc1)Cc1ccc(O)cc1)Cc1ccc(O)cc1	27
CCN[C@H](CN[C@H](CN[C@@H](Cc1ccccc1)CN1CCC[C@H]1CN[C@H](CN[C@H](CN)Cc1ccc(O)cc1)Cc1ccc(O)cc1)Cc1ccc(O)cc1)Cc1ccc(O)cc1	27
CCN[C@H](CN[C@H](CN[C@H](CN[C@H](CN[C@H](CN[C@H](CN)Cc1ccccc1)Cc1ccc(O)cc1)Cc1ccccc1)Cc1ccccc1)Cc1ccc(O)cc1)Cc1ccc(O)cc1	176
CCN[C@H](CN[C@H](CN[C@@H](Cc1ccccc1)CN1CCC[C@H]1CN[C@@H](CN[C@H](CN)CCSC)[C@@H](C)O)Cc1ccc(O)cc1)Cc1ccc(O)cc1	14
CCN[C@H](CN[C@H](CN[C@H](CN[C@H](CN[C@H](CN[C@H](CN)CCSC)Cc1ccc(O)cc1)Cc1ccccc1)Cc1ccccc1)Cc1ccc(O)cc1)Cc1ccc(O)cc1	126
CCN[C@H](CN[C@H](CN[C@@H](Cc1ccc(O)cc1)CN1CCC[C@H]1CN[C@H](CN[C@H](CN)Cc1ccc(O)cc1)Cc1ccc(O)cc1)Cc1ccc(O)cc1)Cc1ccc(O)cc1	87
CCN[C@H](CN[C@H](CN[C@@H](Cc1ccc(O)cc1)CN1CCC[C@H]1CN[C@@H](CN[C@@H](CN)CO)[C@@H](C)O)Cc1ccc(O)cc1)Cc1ccc(O)cc1	32
CCN[C@H](CN[C@H](CN[C@H](CN[C@H](CN[C@H](CN[C@@H](CN)CO)Cc1ccc(O)cc1)Cc1ccccc1)Cc1ccc(O)cc1)Cc1ccc(O)cc1)Cc1ccc(O)cc1	345
CCN[C@H](CN[C@H](CN[C@@H](Cc1ccccc1)CN1CCC[C@H]1CN[C@@H](CN[C@H](CN)Cc1ccc(O)cc1)[C@@H](C)O)Cc1ccc(O)cc1)Cc1ccc(O)cc1	20
CCN[C@H](CN[C@H](CN[C@H](CN[C@H](CN[C@@H](CN[C@H](CN)Cc1ccccc1)[C@@H](C)O)Cc1ccccc1)Cc1ccccc1)Cc1ccc(O)cc1)Cc1ccc(O)cc1	108
CCN[C@H](CN[C@H](CN[C@H](CN[C@H](CN[C@@H](CN1CCC[C@H]1CN)[C@@H](C)O)Cc1ccccc1)Cc1ccccc1)Cc1ccc(O)cc1)Cc1ccc(O)cc1	82
CCN[C@H](CN[C@H](CN[C@@H](Cc1ccc(O)cc1)CN1CCC[C@H]1CN[C@@H](Cc1ccc(O)cc1)CN1CCC[C@H]1CN)Cc1ccc(O)cc1)Cc1ccc(O)cc1	79
CCN[C@H](CN[C@H](CN[C@@H](Cc1ccccc1)CN1CCC[C@H]1CN[C@@H](Cc1ccc(O)cc1)CN1CCC[C@H]1CN)Cc1ccc(O)cc1)Cc1ccc(O)cc1	18
CCN[C@H](CN[C@H](CN[C@@H](Cc1ccc(O)cc1)CN1CCC[C@H]1CN[C@H](CN[C@H](CN)Cc1ccccc1)Cc1ccc(O)cc1)Cc1ccc(O)cc1)Cc1ccc(O)cc1	83
CCN[C@H](CN[C@H](CN[C@H](CN[C@H](CN[C@@H](CN[C@@H](CN)CO)[C@@H](C)O)Cc1ccccc1)Cc1ccc(O)cc1)Cc1ccc(O)cc1)Cc1ccc(O)cc1	163
CCN[C@H](CN[C@H](CN[C@H](CN[C@H](CN[C@@H](CN[C@H](CN)Cc1ccc(O)cc1)[C@@H](C)O)Cc1ccccc1)Cc1ccccc1)Cc1ccc(O)cc1)Cc1ccc(O)cc1	78
CCN[C@H](CN[C@H](CN[C@H](CN[C@H](CN[C@H](CN[C@H](CN)Cc1ccc(O)cc1)Cc1ccc(O)cc1)Cc1ccccc1)Cc1ccc(O)cc1)Cc1ccc(O)cc1)Cc1ccc(O)cc1	261

Structure (SMILES)	IC50 [nM]
CCN[C@H](CN[C@H](CN[C@@H](Cc1ccc(O)cc1)CN1CCC[C@H]1CN[C@@H](CN[C@H](CN)Cc1ccc(O)cc1)[C@@H](C)O)Cc1ccc(O)cc1)Cc1ccc(O)cc1	61
CCN[C@H](CN[C@H](CN[C@H](CN[C@H](CN[C@H](CN[C@@H](CN)CO)Cc1ccc(O)cc1)Cc1ccccc1)Cc1ccccc1)Cc1ccc(O)cc1)Cc1ccc(O)cc1	66
CCN[C@H](CN[C@H](CN[C@H](CN[C@H](CN[C@H](CN)Cc1ccc(O)cc1)Cc1ccc(O)cc1)Cc1ccc(O)cc1)Cc1ccc(O)cc1)Cc1ccc(O)cc1	146
CCN[C@H](CN[C@H](CN[C@@H](Cc1ccc(O)cc1)CN1CCC[C@H]1CN[C@@H](CN1CCC[C@H]1CN)[C@@H](C)O)Cc1ccc(O)cc1)Cc1ccc(O)cc1	41
CCN[C@H](CN[C@H](CN[C@H](CN[C@H](CN[C@@H](CN[C@H](CN)CCSC)[C@@H](C)O)Cc1ccccc1)Cc1ccc(O)cc1)Cc1ccc(O)cc1)Cc1ccc(O)cc1	181
CCN[C@H](CN[C@H](CN[C@@H](Cc1ccc(O)cc1)CN1CCC[C@H]1CN[C@H](CN[C@H](CN)CO)Cc1ccc(O)cc1)Cc1ccc(O)cc1)Cc1ccc(O)cc1	89
CCN[C@H](CN[C@H](CN[C@@H](Cc1ccc(O)cc1)CN1CCC[C@H]1CN[C@@H](CN[C@H](CN)Cc1ccccc1)[C@@H](C)O)Cc1ccc(O)cc1)Cc1ccc(O)cc1	128
CCN[C@H](CN[C@H](CN[C@H](CN)Cc1ccc(O)cc1)Cc1ccc(O)cc1)Cc1ccc(O)cc1	138
CCN[C@H](CN[C@H](CN[C@H](CN[C@H](CN[C@H](CN[C@H](CN)Cc1ccccc1)Cc1ccc(O)cc1)Cc1ccccc1)Cc1ccc(O)cc1)Cc1ccc(O)cc1)Cc1ccc(O)cc1	258
CCN[C@H](CN[C@H](CN[C@H](CN[C@H](CN[C@H](CN[C@H](CN)CCSC)Cc1ccc(O)cc1)Cc1ccccc1)Cc1ccc(O)cc1)Cc1ccc(O)cc1)Cc1ccc(O)cc1	260
CCN[C@H](CN[C@H](CN[C@H](CN[C@H](CN[C@H](CN[C@H](CN)Cc1ccc(O)cc1)Cc1ccc(O)cc1)Cc1ccccc1)Cc1ccccc1)Cc1ccc(O)cc1)Cc1ccc(O)cc1	95
CCN[C@H](CN[C@H](CN[C@H](CN[C@H](CN[C@@H](CN[C@H](CN)CCSC)[C@@H](C)O)Cc1ccccc1)Cc1ccccc1)Cc1ccc(O)cc1)Cc1ccc(O)cc1	115
CCN[C@H](CN[C@H](CN[C@@H](Cc1ccccc1)CN1CCC[C@H]1CN[C@H](CN[C@H](CN)CO)Cc1ccc(O)cc1)Cc1ccc(O)cc1)Cc1ccc(O)cc1 (stereo in doubt; 5)	19
CCN[C@H](CN[C@H](CN)Cc1ccc(O)cc1)Cc1ccc(O)cc1	344
CCN[C@H](CN[C@H](CN[C@H](CN[C@H](CN[C@@H](CN1CCC[C@H]1CN)[C@@H](C)O)Cc1ccccc1)Cc1ccc(O)cc1)Cc1ccc(O)cc1)Cc1ccc(O)cc1	155
CCN[C@H](CN[C@H](CN[C@@H](Cc1ccc(O)cc1)CN1CCC[C@H]1CN[C@H](CN[C@H](CN)CCSC)Cc1ccc(O)cc1)Cc1ccc(O)cc1)Cc1ccc(O)cc1	113
CCN[C@H](CN[C@H](CN[C@@H](Cc1ccccc1)CN1CCC[C@H]1CN[C@H](CN[C@H](CN)CCSC)Cc1ccc(O)cc1)Cc1ccc(O)cc1)Cc1ccc(O)cc1	34
CCN[C@H](CN[C@H](CN[C@@H](Cc1ccccc1)CN1CCC[C@H]1CN[C@@H](CN[C@@H](CN)CO)[C@@H](C)O)Cc1ccc(O)cc1)Cc1ccc(O)cc1	19
CCN[C@H](CN[C@H](CN[C@H](CN)Cc1ccccc1)Cc1ccc(O)cc1)Cc1ccc(O)cc1	47
